Results on 17 compounds are retold here after patent US12583870B2, “Azaheteroaryl compound and application thereof” (SHANGHAI BLUERAY BIOPHARMA CO., LTD., priority 2019, dated 2026).

Usually IC50 stands for the concentration at which inhibition is half-maximal. Read a low IC50 as higher potency.

Each structure is given as a SMILES string.

One assay has as its system KARPAS-422 cells. Put plainly: Cell proliferation analysis, KARPAS-422, 13 days, CellTiter-Glo. Type of assay: cell-based. The settings on record: Homo sapiens, 312 h. The procedure: Human B-cell non-Hodgkin lymphoma cells, KARPAS-422 S, were cultured in a culture flask using standard cell culture conditions. The medium contained 15% fetal bovine serum (FBS, Invitrogen, product number 10099-141) and 1% penicillin/streptomycin solution (P/S) RPMI-1640 (Invitrogen, product number 11875), and the culture flask was placed and cultured in a sterile incubator at the temperature of 37° C. and […] with a relative humidity of […] To detect the effect of PRC2 inhibitors on cell proliferation, cells in exponential growth phase were taken and seeded into a 96-well plate (Corning, product number 3904) at a density of 1×10^4 cells/well, and 100 μL of the medium was added into each well. Subsequently, the compounds at different concentrations disclosed in the present disclosure were added into the wells where cells had already been seeded (9 concentration gradients were provided for each compound, with the highest detection concentration at 10 μM, 3-fold gradient dilution) and two replicates in parallel were provided for each treatment concentration. DMSO was at a final concentration of 0.5%. Afterwards, viable cell numbers were determined using Vi-CELL (Beckman Coulter) every 3-4 days. Cells counted were seeded into a new 96-well plate at the same density (1×10^4 cells/well) each time. The wells were supplemented with a fresh medium to 100 μL and at the same time, compounds at different concentrations were added. The cells were cultured to day 13. 100 μL of CellTiter-Glo (CellTiter-GloCellTiter-GloCellTiter-GloCTG) (Promega, product number G7573) was added into each well. The plate was placed in the dark at room temperature for 10-20 minutes and the luminescence signal was read using SpectraMax i3× (Molecular Devices).
(ATP-based viability assays read luminescence as a measure of living cells.)

Assay [1] concerns trimethylation level of histone H3K27 in G401 cells. Kind of assay: ELISA (H3K27 trimethylation) analysis in G401 cells. The class given is cell-based. The settings on record: Homo sapiens, G-401, 72 hours, H3K27me3 standardized to H3. On the procedure: 3-fold series dilution with DMSO was carried out on the representative compounds of the present disclosure; and 10 concentration gradients were detected for each compound, with the highest detection concentration of 10 μM. The compounds were diluted 200-fold into the G401 cells cultured in a 96-well plate (DMSO at a final concentration of 0.5%). After the cells, administered with the compound, were cultured for 72 hours, the trimethylation level of the histone H3K27 was detected using the ELISA method.
Extraction of the histone: in a 96-well plate, the compound-treated cells were washed three times with 1×PBS (10×PBS buffer (80 g NaCl (Sigma, product number S3014), 2 g KCl (Sigma, product number 60128), 14.4 g Na2HPO4 (Sigma, product number S5136), and 2.4 g KH2PO4 (Sigma, product number P9791) in 1 L of water, adjusting the pH to 7.4)). 100 μL of 0.4 N HCl was added into each well. The plate was placed at 4° C. and gently agitated for 2 hours to lyse the cells. The cell lysate was then neutralized with 80 μL of neutralization buffer (0.5 M disodium hydrogen phosphate, pH 12.5, 2.5 mM DTT; 1% cocktail (Sigma, product number P8340)) (the cell lysate and the neutralization buffer were thoroughly mixed to uniformity).
ELISA detection method: the cell lysate was transferred in parallel to two 384-well detection plates (PerkinElmer, OptiPlate-384HB, product number 6007290), wherein one of the plates was used to detect the H3K27 trimethylation level and the other plate was used to determine the level of H3. PBS was used to adjust the final volume to 50 μL/well. The plates were coated at 4° C. overnight. On the following day, the solution inside the wells was discarded and the plates were washed 5 times with TBST buffer (1×TBS (10×TBS: 24.2 g Tris (Sigma, product number T6066), 80 g NaCl (Sigma, product number S3014) in 1 L of water, adjusting the pH with HCl to 7.6), 0.1% Tween-20) and dried on an absorbent paper by inversion. 70 μL of blocking buffer (TBST, 5% BSA) was added into the coated reaction wells and the plates were incubated at room temperature for 1 hour. The blocking buffer was discarded and primary antibodies were added (30 μL/well). The desired primary antibodies were all diluted with a blocking buffer and the dilution factor was as follows: anti-H3K27me3 antibody (Cell Signaling Technology, product number 9733), 1:2000 dilution; anti-H3 antibody (Cell Signaling Technology, product number 4499), 1:10000 dilution. After the primary antibodies were added, the plates were placed at room temperature and incubated for 1 hour. After the plates were washed with TBST 5 times, the plates were dried by inversion. A secondary antibody (30 μL/well) was added to each of the reaction wells and the plates were incubated at room temperature for 1 hour. The secondary antibody (anti-rabbit antibody (Jackson ImmunoResearch, product number 111-035-003)) was diluted 2000-fold with a blocking buffer before use. After 1 hour, the plates were washed with TBST and dried by inversion. 30 μL of ECL substrate (Pierce, product number 34080) was added into each well and centrifuged at 2000 rpm for 30 seconds. The signal of each sample was detected using SpectraMax (Molecular Devices). Data processing: H3K27 methylation readings were first standardlized using H3 signals and 0.5% DMSO-treated samples was used as the control to calculate the inhibition percentage of the compounds. Data were fit to obtain Dose-Response curves using the GraphPad prism 5 program and the IC50 values of the test compounds were obtained.
A general note: ELISA stands for enzyme-linked immunosorbent assay.

With `CN(C)Cc1ccc(-c2cnc(NCc3c(F)ccc4c3CCO4)n3cnnc23)c2ncnn12` [8-(5-((dimethylamino)methyl)-[1,2,4]triazolo[1,5-a]pyridin-8-yl)-N-((5-fluoro-2,3-dihydrobenzofuran-4-yl)methyl)-[1,2,4]triazolo[4,3-c]pyrimidin-5-amine], the IC50 with KARPAS-422 cells came to 0.0005 µM; in assay [1] it was 0.0006 µM.

With `CN(C)c1ccc(-c2cnc(NCc3c(F)ccc4c3CCO4)n3cnnc23)c2ncnn12` [8-(5-(dimethylamino)-[1,2,4]triazolo[1,5-a]pyridin-8-yl)-N-((5-fluoro-2,3-dihydrobenzofuran-4-yl)methyl)-[1,2,4]triazolo[4,3-c]pyrimidin-5-amine], the IC50 stood at 0.0014 µM in the assay on KARPAS-422 cells and 0.001 µM in assay [1].

Turning to `Fc1ccc2c(c1CNc1ncc(-c3ccc(Cl)n4ncnc34)c3nncn13)CCO2` [8-(5-chloro-[1,2,4]triazolo[1,5-a]pyridin-8-yl)-N-((5-fluoro-2,3-dihydrobenzofuran-4-yl)methyl)-[1,2,4]triazolo[4,3-c]pyrimidin-5-amine], the 50% inhibitory concentration (IC50) in the assay on KARPAS-422 cells was 0.018 µM; in assay [1], 0.033 µM.

Take `Fc1ccc2c(c1CNc1ncc(-c3cccn4ncnc34)c3nncn13)CCO2` [8-([1,2,4]triazolo[1,5-a]pyridin-8-yl)-N-((5-fluoro-2,3-dihydrobenzofuran-4-yl)methyl)-[1,2,4]triazolo[4,3-c]pyrimidin-5-amine]: the figures for the concentration for half-maximal inhibition (IC50) (in the assay on KARPAS-422 cells; in assay [1]) were 0.0014 µM and 0.0009 µM, respectively.

Take `Fc1ccc2c(c1CNc1ncc(-c3cccc4nsnc34)c3nncn13)CCO2` [8-(benzo[c][1,2,5]thiadiazol-4-yl)-N-((5-fluoro-2,3-dihydrobenzofuran-4-yl)methyl)-[1,2,4]triazolo[4,3-c]pyrimidin-5-amine]: the 50% inhibitory concentration (IC50) was determined as 0.014 µM with KARPAS-422 cells and 0.0023 µM in assay [1].

As for `Fc1ccc2c(c1CNc1ncc(-c3cccc4scnc34)c3nncn13)CCO2` [8-(benzo[d]thiazol-4-yl)-N-((5-fluoro-2,3-dihydrobenzofuran-4-yl)methyl)-[1,2,4]triazolo[4,3-c]pyrimidin-5-amine], the IC50 in the assay on KARPAS-422 cells stood at 0.0036 µM; in assay [1] it was 0.0047 µM.

As for `Cc1ccc(-c2cnc(NCc3c(F)ccc4c3CCO4)n3cnnc23)c2ncc(C(=O)N3CCOCC3)n12` [(8-(5-(((5-fluoro-2,3-dihydrobenzofuran-4-yl)methyl)amino)-[1,2,4]triazolo[4,3-c]pyrimidin-8-yl)-5-methylimidazo[1,2-a]pyridin-3-yl)(morpholino)methanone], the IC50 is 0.0011 µM in the assay on KARPAS-422 cells and 0.0024 µM in assay [1].

As for `CN(C)CCN(C)Cc1ccc(-c2cnc(NCc3c(F)ccc4c3CCO4)n3cnnc23)c2ncnn12` [N1-((8-(5-(((5-fluoro-2,3-dihydrobenzofuran-4-yl)methyl)amino)-[1,2,4]triazolo[4,3-c]pyrimidin-8-yl)-[1,2,4]triazolo[1,5-a]pyridin-5-yl)methyl)-N1,N2,N2-trimethylethane-1,2-diamine], the half-maximal inhibitory concentration (IC50) in the assay with KARPAS-422 cells worked out at 0.0035 µM; in assay [1], 0.0112 µM.

For `Fc1ccc2c(c1CNc1ncc(-c3cccc4cn[nH]c34)c3nncn13)CCO2` [N-((5-fluoro-2,3-dihydrobenzofuran-4-yl)methyl)-8-(1H-indazol-7-yl)-[1,2,4]triazolo[4,3-c]pyrimidin-5-amine], the IC50 in the assay on KARPAS-422 cells stood at 0.0023 µM; in assay [1] it was 0.0016 µM.

For the compound `CC1CN(c2ccc(-c3cnc(NCc4c(F)ccc5c4CCO5)n4cnnc34)c3ncnn23)CCO1` (stereo not shown) [N-((5-fluoro-2,3-dihydrobenzofuran-4-yl)methyl)-8-(5-(2-methylmorpholino)-[1,2,4]triazolo[1,5-a]pyridin-8-yl)-[1,2,4]triazolo[4,3-c]pyrimidin-5-amine], the concentration for half-maximal inhibition (IC50) with KARPAS-422 cells was determined as 0.0005 µM; in assay [1], 0.0008 µM.

With `CN1CCN(c2ccc(-c3cnc(NCc4c(F)ccc5c4CCO5)n4cnnc34)c3ncnn23)CC1` [N-((5-fluoro-2,3-dihydrobenzofuran-4-yl)methyl)-8-(5-(4-methylpiperazin-1-yl)-[1,2,4]triazolo[1,5-a]pyridin-8-yl)-[1,2,4]triazolo[4,3-c]pyrimidin-5-amine], the IC50 was 0.0007 µM with KARPAS-422 cells and 0.0041 µM in assay [1].

As to `Fc1ccc2c(c1CNc1ncc(-c3ccc(N4CCC(N5CCOCC5)CC4)n4ncnc34)c3nncn13)CCO2` [N-((5-fluoro-2,3-dihydrobenzofuran-4-yl)methyl)-8-(5-(4-morpholinopiperidin-1-yl)-[1,2,4]triazolo[1,5-a]pyridin-8-yl)-[1,2,4]triazolo[4,3-c]pyrimidin-5-amine], the figures for the IC50 (in the assay with KARPAS-422 cells; in assay [1]) were 0.0008 µM and 0.0011 µM, respectively.

On to `CN1CCN(Cc2ccc(-c3cnc(NCc4c(F)ccc5c4CCO5)n4cnnc34)c3ncnn23)CC1` [N-((5-fluoro-2,3-dihydrobenzofuran-4-yl)methyl)-8-(5-((4-methylpiperazin-1-yl)methyl)-[1,2,4]triazolo[1,5-a]pyridin-8-yl)-[1,2,4]triazolo[4,3-c]pyrimidin-5-amine], for which the IC50 was found to be 0.0007 µM in the assay with KARPAS-422 cells and 0.0011 µM in assay [1].

As for `Fc1ccc2c(c1CNc1ncc(-c3ccc(CN4CCOCC4)n4ncnc34)c3nncn13)CCO2` [N-((5-fluoro-2,3-dihydrobenzofuran-4-yl)methyl)-8-(5-(morpholinomethyl)-[1,2,4]triazolo[1,5-a]pyridin-8-yl)-[1,2,4]triazolo[4,3-c]pyrimidin-5-amine], the IC50 (with KARPAS-422 cells; in assay [1]) was 0.0011 µM throughout.

As to `Fc1ccc2c(c1CNc1ncc(-c3ccc(N4CCCC4)n4ncnc34)c3nncn13)CCO2` [N-((5-fluoro-2,3-dihydrobenzofuran-4-yl)methyl)-8-(5-(pyrrolidin-1-yl)-[1,2,4]triazolo[1,5-a]pyridin-8-yl)-[1,2,4]triazolo[4,3-c]pyrimidin-5-amine], the figures for the IC50 (in the assay with KARPAS-422 cells; in assay [1]) were 0.0032 µM and 0.0027 µM, respectively.

For the compound `Fc1ccc2c(c1CNc1ncc(-c3ccc(C(F)(F)F)n4ncnc34)c3nncn13)CCO2` [N-((5-fluoro-2,3-dihydrobenzofuran-4-yl)methyl)-8-(5-(trifluoromethyl)-[1,2,4]triazolo[1,5-a]pyridin-8-yl)-[1,2,4]triazolo[4,3-c]pyrimidin-5-amine], the IC50 in the assay with KARPAS-422 cells was determined as 0.036 µM; in assay [1] it was 0.0069 µM.

With `Fc1ccc2c(c1CNc1ncc(-c3ccc(C(F)(F)F)n4ccnc34)c3nncn13)CCO2` [N-((5-fluoro-2,3-dihydrobenzofuran-4-yl)methyl)-8-(5-(trifluoromethyl)imidazo[1,2-a]pyridin-8-yl)-[1,2,4]triazolo[4,3-c]pyrimidin-5-amine], the IC50 is 0.007 µM with KARPAS-422 cells and 0.0106 µM in assay [1].
